Assay results taken from publication PMC9090415, “Discovery of small molecule inhibitors of Plasmodium falciparum apicoplast DNA polymerase” (Journal of Enzyme Inhibition and Medicinal Chemistry, 2022).

Target: P. falciparum apicoplast DNA polymerase (Pf-apPOL) (Plasmodium falciparum, UniProt Q8ILY1)
Assay: Fluorescence-based high-throughput DNA polymerase assay (molecular beacon), primary screen and dose-response
Format: biochemical
Description: The HT assay employs a molecular beacon, a stem-loop DNA template with a Cy3 dye and the Black Hole Quencher on the 3′ and 5′ ends of the DNA, respectively. Pf-apPOL concentration is based on a calculated absorptivity of ε280 = 56750 M^−1 cm^−1. Reactions were carried out at 25 °C, using Corning 3575 […] (well-volume, 20 µL). Assays testing for compound inhibition composed of reaction buffer (pH 7.9 in 50 mM potassium acetate, 20 mM Tris-acetate and 10 mM magnesium acetate), Pf-apPOL (20 nM), DNA substrate (20 nM), dNTPs (6 µM), and compound (10 µM in DMSO). The DNA and nucleotide substrates (dNTPs) were at concentrations of 20 nM and 6 µM, respectively, in the assay. Pf-apPOL was incubated in the reaction buffer with dNTPs and the compound of interest (10 µM, in the assay) at 25 °C for 10 min. The DNA substrate was then added and the reaction was allowed to proceed for 90 min at 25 °C.
Each assay plate contained 16 negative controls (no Pf-apPOL, DMSO present) and 16 positive controls (Pf-apPOL present, no DMSO). The fluorescence of each well was determined using a BioTek Synergy Neo fluorescence plate reader using excitation and emission wavelengths of 555 and 570 nm, respectively.
In the above, Min is the average of fluorescence emission of the negative controls (substrate only), Max the average fluorescence emission from the positive controls (enzyme + substrate), and Test the emission from the assays in the presence of compounds (enzyme + compound + substrates). […] […] The IC50 of each compound was determined using Equation (2): (2) IC50= Vmax/(1+ (I/IC50)^n)
In the above, n measures cooperativity, with n > 1 indicating synergistic binding of more than a single molecule of the compound.
To identify apPOL inhibitors we utilised our previously developed high-throughput DNA polymerase assay. The HT assay is based on a molecular beacon DNA template that forms a stem-loop with a Cy3 dye and the Black Hole Quencher on the 3′ and 5′ ends of the DNA, respectively. DNA polymerase activity extends an annealed primer through the stem region, displacing the fluorophore from the quencher, thereby increasing its fluorescence (Figure 1(A)). The assay accurately recapitulates the kinetic behaviour of apPOL, as measured through more conventional low-throughput gel-based assays. The Z′ factor for the assay described here was 0.9 across all plates (data not shown).
Figure 1. High-throughput screening. (A) The fluorescent-based DNA polymerase assay used to screen the compound libraries. The DNA template strand is a hairpin loop with a primer annealed to the loop. The 3’ end of the primer is 11 bases away from the 6 bp duplex. Strand displacement activity of the DNA polymerase separates the Cy3 dye from the Black hole quencher leading to an increase in fluorescent signal. (B) The high-throughput assay workflow. The DNA polymerase is incubated with […] compound for 10 min prior to addition of the hairpin substrate. The reaction is quenched at 3 different time points and the fluorescent signal is measured and % inhibition is determined using the provided equation.

[1] = supplemental file 2, sheet IC50 nontoxic compounds; Pf-apPOL

P. falciparum apicoplast DNA polymerase (Pf-apPOL), sequence (Q8ILY1 entry or part of it): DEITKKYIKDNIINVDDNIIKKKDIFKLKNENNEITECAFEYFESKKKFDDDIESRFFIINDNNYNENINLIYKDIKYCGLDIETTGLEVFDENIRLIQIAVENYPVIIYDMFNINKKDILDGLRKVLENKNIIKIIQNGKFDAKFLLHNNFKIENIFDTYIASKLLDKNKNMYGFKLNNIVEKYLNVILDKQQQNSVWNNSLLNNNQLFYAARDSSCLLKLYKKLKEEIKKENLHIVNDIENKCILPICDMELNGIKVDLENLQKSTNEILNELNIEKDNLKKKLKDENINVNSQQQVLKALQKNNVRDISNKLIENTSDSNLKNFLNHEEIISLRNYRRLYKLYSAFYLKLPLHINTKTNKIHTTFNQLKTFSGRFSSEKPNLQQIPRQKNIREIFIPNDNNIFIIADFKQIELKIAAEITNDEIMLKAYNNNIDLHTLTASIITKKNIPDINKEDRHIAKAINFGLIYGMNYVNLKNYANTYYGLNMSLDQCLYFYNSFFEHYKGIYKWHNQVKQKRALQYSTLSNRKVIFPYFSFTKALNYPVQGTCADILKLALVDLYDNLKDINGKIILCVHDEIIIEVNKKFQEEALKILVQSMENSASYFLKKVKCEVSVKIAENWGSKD

CSCCC(C)(O)CNC(=O)C1CC1 (centres unmarked) [KU0200150]
DNA Pol ('DNA Pol'; screening value, unit not given; 90 min, 10 µM): 33
% inhibition Apo pol 10' (DRC-1; 10'; concentration 2.5): 4.373%
% inhibition Apo pol 10' (DRC-1; 10'; concentration 5): 5.1384%
% inhibition Apo pol 10' (DRC-1; 10'; concentration 10): 19.1529%
% inhibition Apo pol 10' (DRC-1; 10'; concentration 20): 27.3456%
% inhibition Apo pol 10' (DRC-1; 10'; concentration 40): 40.4484%
% inhibition Apo pol 10' (DRC-1; 10'; concentration 80): 39.3482%
% inhibition Apol 90' (DRC-1; 90'; concentration 2.5): 7.582%
% inhibition Apol 90' (DRC-1; 90'; concentration 5): 12.5551%
% inhibition Apol 90' (DRC-1; 90'; concentration 10): 30.4266%
% inhibition Apol 90' (DRC-1; 90'; concentration 20): 38.5831%
% inhibition Apol 90' (DRC-1; 90'; concentration 40): 51.9729%
% inhibition Apol 90' (DRC-1; 90'; concentration 80): 47.9472%
% inhibition apPOL 180' (DRC-1; 180'; concentration 2.5): 8.962%
% inhibition apPOL 180' (DRC-1; 180'; concentration 5): 14.7367%
% inhibition apPOL 180' (DRC-1; 180'; concentration 10): 36.1682%
% inhibition apPOL 180' (DRC-1; 180'; concentration 20): 43.4388%
% inhibition apPOL 180' (DRC-1; 180'; concentration 40): 54.9454%
% inhibition apPOL 180' (DRC-1; 180'; concentration 80): 46.3242%
% inhibition Apo pol 5' (DRC-2, 5', concentration 2.5): 0.182%
% inhibition Apo pol 5' (DRC-2, 5', concentration 5): 4.75%
% inhibition Apo pol 5' (DRC-2, 5', concentration 10): 22%
% inhibition Apo pol 5' (DRC-2, 5', concentration 20): 24%
% inhibition Apo pol 5' (DRC-2, 5', concentration 40): 29%
% inhibition Apo pol 5' (DRC-2, 5', concentration 80): 27%
% inhibition Apol 40' (DRC-2, 40', concentration 2.5): 3.34%
% inhibition Apol 40' (DRC-2, 40', concentration 5): 11%
% inhibition Apol 40' (DRC-2, 40', concentration 10): 28%
% inhibition Apol 40' (DRC-2, 40', concentration 20): 33%
% inhibition Apol 40' (DRC-2, 40', concentration 40): 41%
% inhibition Apol 40' (DRC-2, 40', concentration 80): 41%
% inhibition ApPOL 90' (DRC-2, 90', concentration 2.5): 3.4%
% inhibition ApPOL 90' (DRC-2, 90', concentration 5): 11%
% inhibition ApPOL 90' (DRC-2, 90', concentration 10): 27%
% inhibition ApPOL 90' (DRC-2, 90', concentration 20): 30%
% inhibition ApPOL 90' (DRC-2, 90', concentration 40): 42%
% inhibition ApPOL 90' (DRC-2, 90', concentration 80): 41%
% inhibition apPOL 180' (DRC-2, 180', concentration 2.5): 0.149%
% inhibition apPOL 180' (DRC-2, 180', concentration 5): 5%
% inhibition apPOL 180' (DRC-2, 180', concentration 10): 17%
% inhibition apPOL 180' (DRC-2, 180', concentration 20): 18%
% inhibition apPOL 180' (DRC-2, 180', concentration 40): 32%
% inhibition apPOL 180' (DRC-2, 180', concentration 80): 32%
% inhibition Apol 40' (conc 5 (unit not given); 40'; DRC-2): 11%
% inhibition ApPOL 90' (conc 5 (unit not given); 90'; DRC-2): 11%
% inhibition ApPOL 90' (conc 10 (unit not given); 90'; DRC-2): 27%
% inhibition Apol 40' (conc 40 (unit not given); 40'; DRC-2): 41%
% inhibition apPOL 180' (conc 40 (unit not given); 180'; DRC-2): 32%
% inhibition Apo pol 5' (conc 80 (unit not given); 5'; DRC-2): 27%
% inhibition Apol 40' (conc 80 (unit not given); 40'; DRC-2): 41%
% inhibition ApPOL 90' (conc 80 (unit not given); 90'; DRC-2): 41%
% inhibition apPOL 180' (conc 80 (unit not given); 180'; DRC-2): 32%
DNA Pol (primary screen hit value, DNA Pol (186 hits); 90 min, 10 µM): 33

O=c1[nH]c2ccc(Br)cc2c(-c2ccccc2)c1C1=NNC(c2ccco2)C1 (centres unmarked) [KU0045540]
% inhibition Apo pol 10' (DRC-1; 10'; concentration 2.5): 38.7065%
% inhibition Apo pol 10' (DRC-1; 10'; concentration 5): 32.1153%
% inhibition Apo pol 10' (DRC-1; 10'; concentration 10): 58.5243%
% inhibition Apo pol 10' (DRC-1; 10'; concentration 20): 75.2705%
% inhibition Apo pol 10' (DRC-1; 10'; concentration 40): 80.4182%
% inhibition Apo pol 10' (DRC-1; 10'; concentration 80): 78.0702%
% inhibition Apol 90' (DRC-1; 90'; concentration 2.5): 12.887%
% inhibition Apol 90' (DRC-1; 90'; concentration 5): 9.899%
% inhibition Apol 90' (DRC-1; 90'; concentration 10): 32.8734%
% inhibition Apol 90' (DRC-1; 90'; concentration 20): 57.4465%
% inhibition Apol 90' (DRC-1; 90'; concentration 40): 76.3337%
% inhibition Apol 90' (DRC-1; 90'; concentration 80): 82.7097%
% inhibition apPOL 180' (DRC-1; 180'; concentration 2.5): 0.7615%
% inhibition apPOL 180' (DRC-1; 180'; concentration 5): -2.038%
% inhibition apPOL 180' (DRC-1; 180'; concentration 10): 16.3913%
% inhibition apPOL 180' (DRC-1; 180'; concentration 20): 40.539%
% inhibition apPOL 180' (DRC-1; 180'; concentration 40): 67.9853%
% inhibition apPOL 180' (DRC-1; 180'; concentration 80): 81.6451%
% inhibition Apo pol 5' (DRC-2, 5', concentration 2.5 (unit not given)): 15%
% inhibition Apo pol 5' (DRC-2, 5', concentration 20 (unit not given)): 65%
% inhibition Apo pol 5' (DRC-2, 5', concentration 40 (unit not given)): 65%
% inhibition Apol 40' (DRC-2, 40', concentration 2.5 (unit not given)): 15%
% inhibition Apol 40' (DRC-2, 40', concentration 10 (unit not given)): 49%
% inhibition Apol 40' (DRC-2, 40', concentration 20 (unit not given)): 77%
% inhibition ApPOL 90' (DRC-2, 90', concentration 10 (unit not given)): 49%
% inhibition ApPOL 90' (DRC-2, 90', concentration 20 (unit not given)): 77%
% inhibition ApPOL 90' (DRC-2, 90', concentration 80 (unit not given)): 72%
% inhibition apPOL 180' (DRC-2, 180', concentration 20 (unit not given)): 72%
% inhibition Apo pol 5' (DRC-2; 5'; concentration 2.5): 15%
% inhibition Apo pol 5' (DRC-2; 5'; concentration 5): 27%
% inhibition Apo pol 5' (DRC-2; 5'; concentration 10): 40%
% inhibition Apo pol 5' (DRC-2; 5'; concentration 20): 65%
% inhibition Apo pol 5' (DRC-2; 5'; concentration 40): 65%
% inhibition Apo pol 5' (DRC-2; 5'; concentration 80): 39%
% inhibition Apol 40' (DRC-2; 40'; concentration 2.5): 15%
% inhibition Apol 40' (DRC-2; 40'; concentration 5): 33%
% inhibition Apol 40' (DRC-2; 40'; concentration 10): 49%
% inhibition Apol 40' (DRC-2; 40'; concentration 20): 77%
% inhibition Apol 40' (DRC-2; 40'; concentration 40): 81%
% inhibition Apol 40' (DRC-2; 40'; concentration 80): 67%
% inhibition ApPOL 90' (DRC-2; 90'; concentration 2.5): 15%
% inhibition ApPOL 90' (DRC-2; 90'; concentration 2.5 (unit not given)): 15%
% inhibition ApPOL 90' (DRC-2; 90'; concentration 5): 31%
% inhibition ApPOL 90' (DRC-2; 90'; concentration 10): 49%
% inhibition ApPOL 90' (DRC-2; 90'; concentration 20): 77%
% inhibition ApPOL 90' (DRC-2; 90'; concentration 40): 83%
% inhibition ApPOL 90' (DRC-2; 90'; concentration 80): 72%
% inhibition apPOL 180' (DRC-2; 180'; concentration 2.5): 11%
% inhibition apPOL 180' (DRC-2; 180'; concentration 5): 22%
% inhibition apPOL 180' (DRC-2; 180'; concentration 10): 41%
% inhibition apPOL 180' (DRC-2; 180'; concentration 20): 72%
% inhibition apPOL 180' (DRC-2; 180'; concentration 40): 82%
% inhibition apPOL 180' (DRC-2; 180'; concentration 80): 75%
DNA Pol (primary screen value of the 186 hits; unit not given; 90 min, 10 µM): 43
DNA Pol (primary screen value, head "DNA Pol", unit not given; 90 min, 10 µM): 43

COc1cc(Cl)c(C)cc1NC(=O)Cn1ccc2c(=O)[nH]ccc21 [Molecule 33]
IC50 [1]: 10.3 µM

O=C(NNC(=O)C(F)(F)Sc1ccccc1)c1ccsc1 [Molecule 68]
IC50 [1]: 21 µM
